Source: ChEMBL document CHEMBL1137823, “Building predictive models for protein tyrosine phosphatase 1B inhibitors based on discriminating structural features by reassembling medicinal chemistry building blocks” (J Med Chem, 2004)

Target: T1, Tyrosine-protein phosphatase non-receptor type 1 (Homo sapiens, UniProt P18031)
T1 sequence (P18031 whole entry): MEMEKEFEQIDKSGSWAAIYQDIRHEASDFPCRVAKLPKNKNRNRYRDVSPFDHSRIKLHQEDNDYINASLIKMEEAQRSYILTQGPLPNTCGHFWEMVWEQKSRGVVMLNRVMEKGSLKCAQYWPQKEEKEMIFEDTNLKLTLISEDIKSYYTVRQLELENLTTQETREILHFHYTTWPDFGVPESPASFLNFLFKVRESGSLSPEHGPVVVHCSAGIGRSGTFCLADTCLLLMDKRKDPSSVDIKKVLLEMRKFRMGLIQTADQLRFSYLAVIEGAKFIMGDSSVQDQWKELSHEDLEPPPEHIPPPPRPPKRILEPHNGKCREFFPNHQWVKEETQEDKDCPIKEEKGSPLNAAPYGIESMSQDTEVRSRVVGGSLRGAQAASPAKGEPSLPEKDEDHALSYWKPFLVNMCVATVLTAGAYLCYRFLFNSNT
Assay: Concentration required for 50% inhibition of tyrosine phosphatase 1B

| SMILES | IC50 |
| --- | --- |
| Oc1c(Br)cc(-c2ccc(-c3c(Cc4ccccc4)oc4ccccc34)cc2)cc1Br | 0.479 µM |
| O=C(O)[C@@H](Cc1ccccc1)Oc1ccc(-c2ccc(-c3nc4cccnc4n3Cc3ccccc3)cc2)cc1 | 0.214 µM |
| CCCCc1oc2ccccc2c1-c1ccc(-c2ccc(OC)cc2)cc1 | 0.166 µM |
| CCCCc1oc2ccccc2c1Cc1ccc2ccc(O)cc2c1 | 0.776 µM |
| O=C(O)C(Cc1ccccc1)Oc1ccc(-c2ccc(-c3c(Br)oc4ccccc34)cc2)cc1 (stereo unspecified) | 0.407 µM |
| O=C(O)[C@@H](Cc1ccccc1)Oc1ccc(-c2ccc(-c3nc4ccccc4n3Cc3ccccc3)cc2)cc1 | 0.437 µM |
| Oc1ccc(-c2ccc(-c3c(Cc4ccccc4)oc4ccccc34)cc2)cc1Br | 0.275 µM |
| CCCCc1oc2ccccc2c1C(O)c1ccc2ccc(OCn3cnnn3)c(Br)c2c1 (stereo unspecified) | 0.912 µM |
| COC(=O)[C@H](Cc1ccccc1)Oc1ccc(-c2ccc(-c3c(Cc4ccccc4)oc4ccccc34)cc2)cc1 | 0.589 µM |
| Cc1oc(-c2ccc(C(F)(F)F)cc2)nc1-c1ccc2c(Br)c(OC(Cc3ccccc3)C(=O)O)ccc2c1 (stereo unspecified) | 0.191 µM |
| CCCCc1oc2ccccc2c1C(O)c1ccc2cc(O)ccc2c1 (stereo unspecified) | 0.912 µM |
| CCCc1cc(-c2ccc(-c3c(Cc4ccccc4)oc4ccccc34)cc2)ccc1O[C@@H](Cc1ccccc1)C(=O)O | 0.832 µM |
| Cc1oc(-c2ccc(C(F)(F)F)cc2)nc1-c1cccc(-c2ccc(OCC(=O)O)cc2)c1 | 0.0631 µM |
| O=C(O)[C@H](Cc1ccccc1)Oc1ccc(-c2ccc(-c3c(Cc4ccc(F)cc4)oc4ccccc34)cc2)cc1 | 0.603 µM |
| O=C(O)C(Cc1ccccc1)Oc1ccc(-c2ccc(-c3coc4ccccc34)cc2)cc1 (stereo unspecified) | 0.288 µM |

Now those with a lower IC50, led by results:

| IC50 | SMILES |
| --- | --- |
| 0.0525 µM | O=C(O)[C@H](Cc1ccccc1)Oc1ccc(-c2ccc(-c3c(Cc4ccccc4)sc4ccccc34)cc2)cc1-c1ccc(Cl)cc1 |
| 0.02 µM | Oc1ccc(-c2ccc(-c3coc4ccccc34)cc2)cc1 |
| 0.00398 µM | CCCCc1oc2ccccc2c1C(=O)c1ccc(-c2ccc(O)cc2)cc1 |
| 0.00316 µM | CCCCc1oc2ccccc2c1C(=O)c1ccc2cc(O)ccc2c1 |
| 0.01 µM | Cc1oc(-c2ccc(C(F)(F)F)cc2)nc1-c1cccc(-c2ccc(O)cc2)c1 |
| 0.0398 µM | O=C(O)c1ccc(S(=O)(=O)Oc2ccc(-c3ccc(-c4c(Cc5ccccc5)oc5ccccc45)cc3)cc2[N+](=O)[O-])cc1O |
| 0.038 µM | O=C(O)[C@@H](Cc1ccccc1)Oc1c(Br)cc(-c2ccc(-c3c(Cc4ccccc4)oc4ccccc34)cc2)cc1Br |
| 0.0126 µM | Cc1oc(-c2ccc(C(F)(F)F)cc2)nc1-c1ccc(-c2ccc(O)cc2)cc1 |
| 0.0525 µM | CCCC[C@@H](Oc1c(Br)cc(-c2ccc(-c3c(Cc4ccccc4)oc4ccccc34)cc2)cc1Br)C(=O)O |
| 0.0389 µM | Cc1cc(-c2ccc(-c3c(Cc4ccccc4)oc4ccccc34)cc2)cc(C)c1OS(=O)(=O)c1ccc(C(=O)O)c(O)c1 |
| 0.0316 µM | CCc1oc2ccccc2c1-c1ccc(-c2ccc(O)cc2)cc1 |
